Experimental data: patent US6054114A, “Organometallic ligands for the localization and quantification of amyloid in vivo and in vitro” (priority 1997, dated 2000)
Like-named read-outs stand apart in the source and are kept apart here.

Columns and labels:
[1] = Peptide solubility; format: physicochemical; details: 10 mm nah2po4 buffer, pH 7.4
[2] = target: T1, β1-40 amyloid fibrils (Homo sapiens, UniProt P05067); experiment: Competitive displacement of labeled complexes 3 or 6 from β1-40 fibrils; format: binding; details: 25° C., pH 7.4, mean (±S.D.)
T1 construct: Aggregated β1-40 peptides (Bachem, Torrance, Calif); purchased Bachem, Torrance, Calif
T1 sequence (P05067 672-711 limits assumed): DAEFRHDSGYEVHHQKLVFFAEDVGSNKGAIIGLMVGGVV
Procedure: Dissociation constants, IC50 and inhibition constants were determined. Aggregated β1-40 peptides (Bachem, Torrance, Calif.; peptide concentrations were determined by amino acid analysis) were prepared by stirring supersaturated solutions of peptide (100 μM) in the standard buffer (10 mM NaH2 PO4, pH 7.4) at room temperature for at least 72 h and remained stirring while aliquots were taken. […] The solution was briefly vortexed and allowed to equilibrate at room temperature for 2 h. The solution was centrifuged for 1 min at 14,000 rpm (16,000 g) and the amount of the labeled ligand bound ([B]) to fibrils was obtained by measuring the radioactivity of the pellets or calculated using the equation [B] =[T] - [F] where [F] is the concentration of the labeled ligand in the supernatant (i.e., amount unbound or free) and [T] is the total amount of the labeled ligand added. A Scatchard plot was used to obtain [B]max (apparent maximum amount of the labeled ligand bound to fibrils) and Kd. (Freifelder, D., Physical Biochemistry: Applications to Biochemistry and Molecular Biology, 2nd ed.; W. H. Freeman & Co., N. Y. Chapter 10, p. 654 (1982)). The [B]max was based on total protein concentration. […] The IC50 value was used to calculate the inhibition constant Ki. (Cheng et al., Biochem. Pharmacol. 22:3099-3108 (1973)).
The relative affinities (Ki 's) of the free bipyridyl ligands were determined by displacement of complexes 3 or 6 (see Table 1). […] The stoichiometry of saturation, as estimated by Scatchard analysis of the binding curves, differed slightly, with 2.7 moles of 3 and 1.6 moles of 6 bound per mole of β1-40.

[3] = [Tc(CNtBu)4 (bpcg)]^+ (6) as labeled ligand, read-out: Inhibition constant (Ki) for β1-40 fibrils
[4] = [Tc(CNtBu)4 (bpcr)]^+ (3) as labeled ligand, read-out: Inhibition constant (Ki) for β1-40 fibrils

Ki [2, 3] [nM] | Ki [2, 4] [nM] | Compound | solubility [1] | Ki ([2]; Inhibition constant (Ki) for β1-40 fibrils, [Tc(CNtBu)4 (bpcg)]^+ (6) as labeled ligand) [nM] | Ki ([2]; Inhibition constant (Ki) for β1-40 fibrils, [Tc(CNtBu)4 (bpcr)]^+ (3) as labeled ligand) [nM]
 |  | β1-40: β1-40 amyloid peptide (Bachem), C-terminally truncated relative of Aβ1-42 | ca. 1 μM |  | 
420 | 760 | O=C(O)c1cc(N=Nc2ccc(-c3ccc(N=Nc4ccc(O)c(C(=O)O)c4)cn3)nc2)ccc1O [compound 5, bipyridal-Chrysamine G] |  |  | 
480 | 510 | Nc1c(N=Nc2ccc(-c3ccc(N=Nc4cc(S(=O)(=O)O)c5ccccc5c4N)cn3)nc2)cc(S(=O)(=O)O)c2ccccc12 [compound 2, Bipyridyl-Congo Red] |  |  | 
 |  | Nc1c(/N=N/c2ccc(-c3ccc(/N=N/c4cc(S(=O)(=O)O)c5ccccc5c4N)cc3)cc2)cc(S(=O)(=O)O)c2ccccc12 [Congo Red (1), Congo Red, reference compound] |  | 560 | 460
